From patent US8426406B2, “Glucocorticoid receptor agonist comprising 2,2,4-trimethyl-6-phenyl-1,2-dihydroquinoline derivatives having substituted oxy group” (Santen Pharmaceutical Co., Ltd., priority 2008, dated 2013) come the findings set out here.

Experiment [1] has as its system IL-6 production induced by lipopolysaccharide (LPS) in human corneal epithelial cells. Description: Evaluation test for GR agonist activity: inhibition of LPS-induced IL-6 production in human corneal epithelial cells (HCE-T). It counts as cell-based. Conditions: Corneal epithelial cell, 10 μL of 100 μM test compound solution per well, 4 hours incubation, efficacy relative to DEX. The essentials:
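SV40-immortalized HCE-T cells were treated with test compound (100 μM solution, stock before dilution into well) plus LPS (1 μg/mL solution, likewise pre-dilution) for 4 hours in 10% FBS-DMEM/F12. IL-6 in supernatants was measured by HTRF. Inhibition was calculated relative to LPS-plus-DMSO and no-LPS controls, and efficacy was expressed as % of DEX inhibition.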

In experiment [2] the test system is allergic conjunctivitis model in mice. Description: Inhibitory effect on the vascular hyper-permeability in allergic conjunctivitis model. It counts as in vivo. The conditions noted are these: Mus musculus, 1% (W/V) test compound suspension instilled to the right eye three times before ovalbumin instillation, dye leakage vs vehicle, mean of 5-6 eyes, read-out: The inhibition ratio of the vascular hyper-permeability (%). The method, then:
In order to evaluate anti-allergic effect, inhibitory effect on the vascular hyper-permeability in allergic conjunctivitis model in mice was examined. This effect was calculated based on dye leakages of vehicle-treated group (control group) and test compound-treated group.
By adding 0.5% polysorbate 80/saline to the test compound, a 1% (W/V) test compound suspension was prepared.
1) Ovalbumin absorbed on aluminum hydroxide gel was dissolved in saline (20 μg ovalbumin/mL), and male BALE/c mice, 6 weeks old, were actively sensitized to the antigen by intraperitoneal injections of 500 μL of it.
2) On the 6th day from sensitization, sensitized mice were boosted by additional intraperitoneal injections of 500 μL ovalbumin absorbed on aluminum hydroxide gel (20 μg ovalbumin/mL).
3) On the 11th day, 12th day, 13th day, 14th day and 15th day from the first sensitization, allergic conjunctivitis were induced by installations to the right eyes of the mice of […] of 50% glycerol solution containing 15% (W/V) ovalbumin.
4) […] of test compound suspension per eye was instilled to the right eye of the above mice 15 min, 1 hr and 3 hrs before ovalbumin instillation (three times) on the 15th day from sensitization. In vehicle-treated group (control group), the mice were instilled with 0.5% polysorbate 80/saline in substitution for test compound suspension.
5) Just before ovalbumin instillation on the 15th day from sensitization, all animals received a tail intravenous injection of 0.1% Evans blue dye. The right periocular tissues of the mice, which were the leaked parts of dye, were collected 30 min after ovalbumin instillation. The dye was extracted from the tissues with the dye extraction liquid. Then the absorbance of the dye extract was measured. The dye leakage was calculated from the absorbance value, and the inhibition ratio of the vascular hyper-permeability of test compound-treated group was calculated according to calculation equation 1. The inhibition ratio of the vascular hyper-permeability of test compound-treated group(%)=(1−Ax/Ao)×100 (Calculation Equation 1) Ao: Dye leakage in vehicle-treated group (control group) Ax: Dye leakage in test compound-treated group (Test Results and Discussion)

Regarding `COc1cc(OC(=O)c2ccccc2Cl)ccc1-c1ccc2c(c1COC(=O)c1ccc(C)s1)C(C)=CC(C)(C)N2` [Compound 1-139, 6-[4-(2-Chlorobenzoyloxy)-2-methoxyphenyl]-5-(5-methylthiophen-2-ylcarbonyloxymethyl)-2,2,4-trimethyl-1,2-dihydroquinoline], the Emax (as a rule, the maximal effect, on the per cent scale that the assay sets) in experiment [1] amounted to 104%. Further, in experiment [2], the inhibition in vivo at 10000 µg/mL is 15%.
As for `CCC(=O)Oc1ccc(OC)c(-c2ccc3c(c2COc2cc(F)ccc2C)C(C)=CC(C)(C)N3)c1` [Compound 1-18, 5-(5-Fluoro-2-methylphenoxymethyl)-6-(2-methoxy-5-propionyloxyphenyl)-2,2,4-trimethyl-1,2-dihydroquinoline], the Emax in experiment [1] turned out to be 77%. Besides, in experiment [2], the inhibition in vivo at 10000 µg/mL came to 30%.
Consider `COc1cc(OC(=O)c2ccco2)ccc1-c1ccc2c(c1COC(=O)c1ccc(C)s1)C(C)=CC(C)(C)N2` [Compound 1-138, 6-[4-(Furan-2-ylcarbonyloxy)-2-methoxyphenyl]-5-(5-methylthiophen-2-ylcarbonyloxymethyl)-2,2,4-trimethyl-1,2-dihydroquinoline], for which the Emax in experiment [1] turned out to be 79%. The inhibition in vivo at 10000 µg/mL in experiment [2] was 16%.
Consider `COc1cc(OC(=O)c2ccccc2Cl)ccc1-c1ccc2c(c1COc1cc(F)ccc1C)C(C)=CC(C)(C)N2` [Compound 1-7, 6-[4-(2-Chlorobenzoyloxy)-2-methoxyphenyl]-5-(5-fluoro-2-methylphenoxymethyl)-2,2,4-trimethyl-1,2-dihydroquinoline], for which the Emax in experiment [1] was determined as 78%. In addition, in experiment [2], the inhibition in vivo at 10000 µg/mL came to 28%.
With `COc1cc(OC(=O)c2cccnc2)ccc1-c1ccc2c(c1COC(=O)c1ccc(C)s1)C(C)=CC(C)(C)N2` [Compound 1-137, 6-[2-Methoxy-4-(pyridin-3-ylcarbonyloxy)phenyl]-5-(5-methylthiophen-2-ylcarbonyloxymethyl)-2,2,4-trimethyl-1,2-dihydroquinoline], in experiment [1], the Emax came to 83%. Moreover, the inhibition in vivo at 10000 µg/mL in experiment [2] is 26%.
The like results for `COc1cc(OC(=O)c2cccnc2)ccc1-c1ccc2c(c1CNc1cc(F)ccc1C)C(C)=CC(C)(C)N2` [Compound 1-105, 5-(5-Fluoro-2-methylphenylaminomethyl)-6-[2-methoxy-4-(pyridin-3-ylcarbonyloxy)phenyl]-2,2,4-trimethyl-1,2-dihydroquinoline] were, in that order, 97% and 18%.
On the same counts, the results for `COc1ccccc1NCc1c(-c2ccc(OC(=O)c3cccnc3)cc2OC)ccc2c1C(C)=CC(C)(C)N2` [Compound 1-97, 5-(2-Methoxyphenylaminomethyl)-6-[2-methoxy-4-(pyridin-3-ylcarbonyloxy)phenyl]-2,2,4-trimethyl-1,2-dihydroquinoline] are 81% and 21%.
Compound `COc1ccccc1C(=O)Oc1ccc(-c2ccc3c(c2COC(=O)c2ccc(C)s2)C(C)=CC(C)(C)N3)c(OC)c1` [Compound 1-136, 6-[2-Methoxy-4-(2-methoxybenzoyloxy)phenyl]-5-(5-methylthiophen-2-ylcarbonyloxymethyl)-2,2,4-trimethyl-1,2-dihydroquinoline] returned an Emax in experiment [1] of 89%. Further, the inhibition in vivo at 10000 µg/mL in experiment [2] was found to be 15%.
`COc1ccccc1NCc1c(-c2ccc(OC(=O)c3ccncc3)cc2OC)ccc2c1C(C)=CC(C)(C)N2` [Compound 1-102, 5-(2-Methoxyphenylaminomethyl)-6-[2-methoxy-4-(pyridin-4-ylcarbonyloxy)phenyl]-2,2,4-trimethyl-1,2-dihydroquinoline] came in with an Emax in experiment [1] of 99%. In addition, in experiment [2], the inhibition in vivo at 10000 µg/mL is 16%.
